Activity calls are given as the source filed them.
Experiments:
[1] = suppression of NO production in INS-1E cells – cell-based, Griess absorbance, dry powder, set 3, dose response (AID 488870); format: functional; conditions: Rattus norvegicus
[2] = tested on: INS1; experiment: suppression of NO production in INS-1E cells – cell-based, Griess absorbance, dry powder, set 2, dose response (AID 488868); format: functional; conditions: Rattus norvegicus
[3] = biological target: T1, Type-1 angiotensin II receptor (Homo sapiens, UniProt P30556); experiment: antagonism of angiotensin II type 1 receptor – cell-based, uHTS hits, selectivity assay for APJ receptor antagonist project, dose response (AID 463214); format: functional;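 further: antagonist potency against angiotensin II stimulated AT1 response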
T1 sequence (P30556 whole entry): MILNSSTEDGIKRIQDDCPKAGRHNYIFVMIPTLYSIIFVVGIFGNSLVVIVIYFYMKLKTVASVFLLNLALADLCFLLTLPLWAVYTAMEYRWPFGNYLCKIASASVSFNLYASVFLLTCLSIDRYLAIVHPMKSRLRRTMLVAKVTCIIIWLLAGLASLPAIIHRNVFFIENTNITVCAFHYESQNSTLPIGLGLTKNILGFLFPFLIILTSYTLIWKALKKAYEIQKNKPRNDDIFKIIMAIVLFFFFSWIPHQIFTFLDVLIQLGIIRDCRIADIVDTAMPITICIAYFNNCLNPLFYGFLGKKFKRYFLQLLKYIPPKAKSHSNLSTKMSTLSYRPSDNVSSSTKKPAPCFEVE

[4] = biological target: Beta-galactosidase (Escherichia coli, UniProt Q8VNN2); experiment: PubChem AID 485352; format: functional
[5] = biological target: Beta Lactamase (Pseudomonas aeruginosa, UniProt Q932Y6); experiment: BLA reporter interference, concentration series – BLA reporter cells, FRET fluorescence, artefact control for TLR9-MyD88 binding inhibitor project, dose response (AID 588341); format: cell-based;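 further: cell based assay in CHO-K1 cells stably expressing beta-lactamase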
[6] = tested on: CHO; experiment: CHO cell viability loss, potency – luminescence, cytotoxicity control for TLR9-MyD88 binding inhibitor project, dose response (AID 588339); format: functional, cell-based, hamster; conditions: Cricetulus griseus;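 further: CHO cells stably coexpressing TLR9 and MyD88 fusions from primary screen; compound exposure lasted 48 hours before viability readout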
[7] = biological target: T2, V-type proton ATPase subunit c' (Saccharomyces cerevisiae S288c, UniProt P32842); experiment: Dose Response of Small Molecules that Regulate V-ATPase Proton Transport in Yeast using pHLuorin, Cherry Pick 2.; format: functional; conditions: read-out: EC50_MICROM
[8] = biological target: T2, V-type proton ATPase subunit c'; experiment: Dose Response with BCECF Assay for V-ATPase inhibitors that increase vacuolar pH, Powder Set 1.; format: functional; conditions: read-out: EC50_MICROM
[9] = cells; format: functional
[10] = biological target: T3, Sentrin-specific protease 8 (Homo sapiens, UniProt Q96LD8); format: functional
T3 sequence (Q96LD8 whole entry): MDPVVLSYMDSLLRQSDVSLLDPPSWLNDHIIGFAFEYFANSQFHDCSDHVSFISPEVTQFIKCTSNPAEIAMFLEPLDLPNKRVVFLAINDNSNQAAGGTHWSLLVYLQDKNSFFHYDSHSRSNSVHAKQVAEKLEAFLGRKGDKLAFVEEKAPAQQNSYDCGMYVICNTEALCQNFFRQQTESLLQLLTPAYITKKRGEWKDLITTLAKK

[11] = biological target: T4, Histone-lysine N-methyltransferase NSD2 (Homo sapiens, UniProt O96028); format: biochemical
T4 sequence (O96028 whole entry): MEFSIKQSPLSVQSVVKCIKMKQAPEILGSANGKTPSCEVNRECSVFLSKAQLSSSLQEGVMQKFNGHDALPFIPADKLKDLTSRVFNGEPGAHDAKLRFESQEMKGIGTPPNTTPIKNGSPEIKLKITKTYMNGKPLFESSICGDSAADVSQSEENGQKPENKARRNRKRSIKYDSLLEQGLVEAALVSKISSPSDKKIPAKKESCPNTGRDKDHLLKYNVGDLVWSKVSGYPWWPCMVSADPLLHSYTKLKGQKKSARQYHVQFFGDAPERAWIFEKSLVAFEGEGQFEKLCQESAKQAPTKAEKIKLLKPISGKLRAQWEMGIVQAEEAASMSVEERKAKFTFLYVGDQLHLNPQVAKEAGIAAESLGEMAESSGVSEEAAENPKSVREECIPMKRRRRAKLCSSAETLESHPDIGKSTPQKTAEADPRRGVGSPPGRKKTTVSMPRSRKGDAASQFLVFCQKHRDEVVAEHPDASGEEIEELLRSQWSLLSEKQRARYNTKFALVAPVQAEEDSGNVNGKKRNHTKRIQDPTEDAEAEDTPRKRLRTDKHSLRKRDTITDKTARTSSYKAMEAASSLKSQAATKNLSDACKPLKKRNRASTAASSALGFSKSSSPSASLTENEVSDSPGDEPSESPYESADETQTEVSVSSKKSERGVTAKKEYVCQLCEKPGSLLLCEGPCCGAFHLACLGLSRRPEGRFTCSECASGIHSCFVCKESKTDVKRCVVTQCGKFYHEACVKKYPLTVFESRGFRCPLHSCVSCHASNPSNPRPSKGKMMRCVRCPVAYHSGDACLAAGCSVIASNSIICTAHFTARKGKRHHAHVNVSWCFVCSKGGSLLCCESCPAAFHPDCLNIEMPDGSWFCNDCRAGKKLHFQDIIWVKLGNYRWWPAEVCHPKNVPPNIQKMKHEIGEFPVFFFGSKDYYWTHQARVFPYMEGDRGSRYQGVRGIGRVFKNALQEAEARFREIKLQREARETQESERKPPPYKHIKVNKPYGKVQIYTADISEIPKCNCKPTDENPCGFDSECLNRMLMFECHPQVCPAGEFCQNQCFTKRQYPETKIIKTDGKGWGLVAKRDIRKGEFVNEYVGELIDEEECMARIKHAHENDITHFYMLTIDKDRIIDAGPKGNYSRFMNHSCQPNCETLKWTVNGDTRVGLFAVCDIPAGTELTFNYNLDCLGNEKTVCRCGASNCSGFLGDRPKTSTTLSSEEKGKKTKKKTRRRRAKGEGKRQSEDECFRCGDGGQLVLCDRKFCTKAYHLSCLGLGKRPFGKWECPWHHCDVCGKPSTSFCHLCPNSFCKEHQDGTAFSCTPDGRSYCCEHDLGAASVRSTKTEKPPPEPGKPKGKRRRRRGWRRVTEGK

[12] = biological target: Tyrosyl-DNA phosphodiesterase 2 (Homo sapiens, UniProt O95551); experiment: potency against TDP2 phosphodiesterase activity – biochemical, epi absorbance, IC50, dose response (AID 743297)
[13] = biological target: T5, Apoptotic protease-activating factor 1 (Homo sapiens, UniProt O14727); format: functional
T5 sequence (O14727 whole entry): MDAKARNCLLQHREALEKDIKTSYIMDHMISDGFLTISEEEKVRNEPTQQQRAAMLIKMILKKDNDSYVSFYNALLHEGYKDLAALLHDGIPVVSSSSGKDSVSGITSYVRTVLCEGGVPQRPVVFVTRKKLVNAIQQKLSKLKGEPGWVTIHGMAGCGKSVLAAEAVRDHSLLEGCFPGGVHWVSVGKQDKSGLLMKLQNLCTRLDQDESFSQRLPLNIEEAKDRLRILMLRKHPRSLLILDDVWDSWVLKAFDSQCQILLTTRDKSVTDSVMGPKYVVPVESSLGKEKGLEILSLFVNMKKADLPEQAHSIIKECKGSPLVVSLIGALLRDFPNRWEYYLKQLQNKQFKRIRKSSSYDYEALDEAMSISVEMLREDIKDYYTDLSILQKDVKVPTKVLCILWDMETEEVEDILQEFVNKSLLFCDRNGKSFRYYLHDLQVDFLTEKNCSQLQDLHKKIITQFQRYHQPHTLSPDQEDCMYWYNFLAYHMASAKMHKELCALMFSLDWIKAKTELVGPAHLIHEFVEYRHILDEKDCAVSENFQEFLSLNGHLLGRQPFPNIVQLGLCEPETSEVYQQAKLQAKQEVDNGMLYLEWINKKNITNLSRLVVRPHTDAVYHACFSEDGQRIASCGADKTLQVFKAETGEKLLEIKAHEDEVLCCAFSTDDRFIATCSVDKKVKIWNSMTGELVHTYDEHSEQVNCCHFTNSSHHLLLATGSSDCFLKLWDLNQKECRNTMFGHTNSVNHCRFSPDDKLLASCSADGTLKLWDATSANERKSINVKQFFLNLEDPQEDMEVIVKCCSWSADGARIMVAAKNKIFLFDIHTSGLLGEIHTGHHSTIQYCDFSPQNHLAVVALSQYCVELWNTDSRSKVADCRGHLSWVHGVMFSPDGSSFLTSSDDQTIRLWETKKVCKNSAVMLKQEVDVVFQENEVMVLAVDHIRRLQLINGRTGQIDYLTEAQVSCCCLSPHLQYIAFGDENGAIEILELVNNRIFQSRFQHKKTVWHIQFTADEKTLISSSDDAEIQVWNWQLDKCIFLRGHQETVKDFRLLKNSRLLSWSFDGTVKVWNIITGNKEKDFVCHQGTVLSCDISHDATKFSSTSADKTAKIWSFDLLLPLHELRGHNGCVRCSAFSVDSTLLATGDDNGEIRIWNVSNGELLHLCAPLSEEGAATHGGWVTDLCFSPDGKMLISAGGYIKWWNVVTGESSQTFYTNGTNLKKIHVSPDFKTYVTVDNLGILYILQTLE

[14] = biological target: T3, Sentrin-specific protease 8; format: functional; remark: listed apart in the source
[15] = Luminescence Cell-Based Dose Confirmation HTS to Identify Activators of 5'UTR Stem-Loop Driven Alpha-Synuclein mRNA Translation in H4 Neuroglioblastoma Cells. [Related pubchem assays: 1829 (Project Summary), 1814 (Primary HTS)]; format: functional
[16] = biological target: T6, Nuclear receptor subfamily 0 group B member 1 (Homo sapiens, UniProt P51843); experiment: Luminescence-based cell-based high throughput dose response assay for inhibitors of the orphan nuclear receptor subfamily 0, group B, member 1 (DAX1; NR0B1). [Related pubchem assays (depositor defined):AID504766, AID504790]; format: functional
T6 sequence (P51843 whole entry): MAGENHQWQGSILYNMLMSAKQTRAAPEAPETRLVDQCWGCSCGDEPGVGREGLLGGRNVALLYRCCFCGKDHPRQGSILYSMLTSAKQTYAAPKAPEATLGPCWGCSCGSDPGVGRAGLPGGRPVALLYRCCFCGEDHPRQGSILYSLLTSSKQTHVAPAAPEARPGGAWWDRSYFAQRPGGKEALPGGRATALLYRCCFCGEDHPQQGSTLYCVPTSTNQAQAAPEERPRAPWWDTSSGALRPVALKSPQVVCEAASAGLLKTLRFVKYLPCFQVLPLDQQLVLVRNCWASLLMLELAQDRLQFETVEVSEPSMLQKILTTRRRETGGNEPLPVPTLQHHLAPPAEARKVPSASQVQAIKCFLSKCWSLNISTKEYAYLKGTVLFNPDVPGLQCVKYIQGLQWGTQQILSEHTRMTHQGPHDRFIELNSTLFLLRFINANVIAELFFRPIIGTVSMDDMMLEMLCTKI

[17] = Luminescence Cell-Based Dose Response to Identify Activators of 5'UTR Stem-Loop Driven Prion Protein mRNA Translation in H4-C Neuroglioblastoma Cells. [Related pubchem assays: 1829 (Project Summary), 1814 (Primary HTS)]; format: functional
[18] = tested on: HEK293; experiment: cells; format: functional, cell-based; conditions: Homo sapiens
[19] = Luminescence Cell-Based Dose Confirmation to Identify Activators of 5'UTR Stem-Loop Driven Alpha-Synuclein mRNA Translation in H4 Neuroglioblastoma Cells. [Related pubchem assays: 1829 (Project Summary), 1814 (Primary HTS)]; format: functional
[20] = viability loss in HepG2 hepatoma cells – cell-based, ATP luminescence, cherry-pick, activator set 2, cytotoxicity control, dose response (AID 1053143); format: functional
[21] = Luminescence Cell-Based Dose Response to Identify Activators of Luciferase Translation or Activity in H4-C Neuroglioblastoma Cells. [Related pubchem assays: 1829 (Project Summary), 1814 (Primary HTS)]; format: functional
[22] = Luminescence Cell-Based Dose Response HTS to Identify Activators of Luciferase Translation or Activity in H4 […] Cells. [Related pubchem assays: 1829 (Project Summary), 1814 (Primary HTS)]; format: functional
[23] = tested on: H4; experiment: Luminescence Cell-Based Dose Response HTS to Identify Activators of 5'UTR Stem-Loop Driven Prion Protein mRNA Translation in H4 Neuroglioblastoma Cells. [Related pubchem assays: 1829 (Project Summary), 1814 (Primary HTS)]; format: functional; conditions: Homo sapiens
[24] = biological target: DNA dC->dU-editing enzyme APOBEC-3A (Homo sapiens, UniProt P31941); experiment: SAR analysis of small molecule inhibitors of APOBEC3A DNA Deaminase via a fluorescence-based single-stranded DNA deaminase assay.; format: functional; conditions: read-out: IC50_Mean
[25] = biological target: DNA dC->dU-editing enzyme APOBEC-3G (Homo sapiens, UniProt Q9HC16); experiment: inhibition of APOBEC3G ssDNA deamination – biochemical, fluorescence, single-stranded DNA substrate, SAR follow-up (AID 602136); format: functional; conditions: read-out: IC50_Mean
[26] = biological target: DNA topoisomerase (Yersinia pestis, UniProt A0A2S9PM60); experiment: Yersinia topoisomerase I cleavage product accumulation – biochemical, cherry-pick, dose response (AID 588525)
DNA topoisomerase, sequence (A0A2S9PM60 whole entry): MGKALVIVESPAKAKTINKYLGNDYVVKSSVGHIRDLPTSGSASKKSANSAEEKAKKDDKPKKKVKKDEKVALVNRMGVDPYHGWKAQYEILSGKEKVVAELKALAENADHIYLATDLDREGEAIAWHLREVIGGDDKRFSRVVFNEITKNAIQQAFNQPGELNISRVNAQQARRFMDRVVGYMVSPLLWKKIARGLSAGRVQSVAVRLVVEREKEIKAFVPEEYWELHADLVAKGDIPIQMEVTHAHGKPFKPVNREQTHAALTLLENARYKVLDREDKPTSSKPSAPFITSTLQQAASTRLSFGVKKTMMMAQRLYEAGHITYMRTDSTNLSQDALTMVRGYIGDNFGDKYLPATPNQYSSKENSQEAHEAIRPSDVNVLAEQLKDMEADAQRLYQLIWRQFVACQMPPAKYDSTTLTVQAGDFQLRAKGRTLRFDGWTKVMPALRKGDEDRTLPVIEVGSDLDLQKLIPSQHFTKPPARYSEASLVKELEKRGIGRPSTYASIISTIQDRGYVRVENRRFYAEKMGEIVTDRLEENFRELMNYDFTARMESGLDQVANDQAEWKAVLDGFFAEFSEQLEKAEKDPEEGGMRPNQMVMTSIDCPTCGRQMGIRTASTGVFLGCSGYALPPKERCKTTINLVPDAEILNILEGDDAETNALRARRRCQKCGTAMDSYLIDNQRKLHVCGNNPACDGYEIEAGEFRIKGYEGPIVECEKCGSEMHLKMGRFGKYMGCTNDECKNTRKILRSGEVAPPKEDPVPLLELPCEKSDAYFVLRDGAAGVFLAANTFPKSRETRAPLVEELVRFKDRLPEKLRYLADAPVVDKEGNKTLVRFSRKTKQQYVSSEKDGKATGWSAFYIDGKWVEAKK

T2 sequence (P32842 whole entry): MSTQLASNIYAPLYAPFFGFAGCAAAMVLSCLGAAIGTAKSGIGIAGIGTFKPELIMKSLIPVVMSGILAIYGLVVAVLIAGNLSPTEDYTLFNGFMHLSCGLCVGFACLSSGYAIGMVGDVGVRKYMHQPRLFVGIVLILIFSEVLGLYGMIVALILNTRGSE
Beta-galactosidase, sequence (Q8VNN2 whole entry): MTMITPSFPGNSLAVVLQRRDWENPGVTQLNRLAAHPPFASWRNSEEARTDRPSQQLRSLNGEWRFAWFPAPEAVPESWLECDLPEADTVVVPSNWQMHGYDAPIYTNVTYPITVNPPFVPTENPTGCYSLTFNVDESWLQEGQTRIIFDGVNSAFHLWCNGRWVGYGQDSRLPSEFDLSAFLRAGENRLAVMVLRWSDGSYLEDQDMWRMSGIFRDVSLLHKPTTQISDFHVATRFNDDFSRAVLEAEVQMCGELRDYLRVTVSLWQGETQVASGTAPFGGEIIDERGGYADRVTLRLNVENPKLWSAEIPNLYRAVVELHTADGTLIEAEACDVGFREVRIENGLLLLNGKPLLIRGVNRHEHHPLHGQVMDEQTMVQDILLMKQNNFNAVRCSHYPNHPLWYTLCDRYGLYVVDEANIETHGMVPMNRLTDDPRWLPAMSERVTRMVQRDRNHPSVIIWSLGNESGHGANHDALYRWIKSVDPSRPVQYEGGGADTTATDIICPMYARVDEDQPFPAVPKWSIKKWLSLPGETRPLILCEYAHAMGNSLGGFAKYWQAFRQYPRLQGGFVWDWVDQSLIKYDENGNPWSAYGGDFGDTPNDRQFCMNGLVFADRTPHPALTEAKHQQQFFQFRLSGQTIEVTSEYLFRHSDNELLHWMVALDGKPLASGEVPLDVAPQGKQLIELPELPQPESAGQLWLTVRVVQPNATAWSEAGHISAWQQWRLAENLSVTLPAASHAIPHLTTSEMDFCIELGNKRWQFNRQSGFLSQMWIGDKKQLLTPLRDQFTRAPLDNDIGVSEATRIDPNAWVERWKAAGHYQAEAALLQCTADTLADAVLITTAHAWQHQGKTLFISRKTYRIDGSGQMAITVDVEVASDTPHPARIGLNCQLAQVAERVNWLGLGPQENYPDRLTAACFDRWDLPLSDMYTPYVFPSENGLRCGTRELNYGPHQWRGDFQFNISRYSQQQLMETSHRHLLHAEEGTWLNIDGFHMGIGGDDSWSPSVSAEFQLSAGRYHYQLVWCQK
DNA dC->dU-editing enzyme APOBEC-3A, sequence (P31941 whole entry): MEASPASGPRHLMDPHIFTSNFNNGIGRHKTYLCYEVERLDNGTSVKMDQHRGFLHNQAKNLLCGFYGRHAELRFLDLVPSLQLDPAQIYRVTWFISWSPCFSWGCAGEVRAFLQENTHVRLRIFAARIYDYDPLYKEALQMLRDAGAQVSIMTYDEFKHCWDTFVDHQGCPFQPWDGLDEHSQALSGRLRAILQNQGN
DNA dC->dU-editing enzyme APOBEC-3G, sequence (Q9HC16 whole entry): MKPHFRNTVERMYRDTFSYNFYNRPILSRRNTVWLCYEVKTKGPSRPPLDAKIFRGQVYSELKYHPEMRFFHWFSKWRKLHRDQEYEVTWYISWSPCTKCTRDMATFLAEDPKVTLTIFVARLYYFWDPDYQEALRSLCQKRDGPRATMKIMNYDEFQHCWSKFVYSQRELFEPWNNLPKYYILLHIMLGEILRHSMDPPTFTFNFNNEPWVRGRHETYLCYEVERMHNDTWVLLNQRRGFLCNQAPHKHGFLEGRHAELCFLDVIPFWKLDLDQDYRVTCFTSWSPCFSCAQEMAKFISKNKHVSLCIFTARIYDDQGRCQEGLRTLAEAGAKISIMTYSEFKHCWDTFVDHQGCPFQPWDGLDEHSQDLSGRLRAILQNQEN
Beta Lactamase, sequence (Q932Y6 whole entry, the tested form may be a part): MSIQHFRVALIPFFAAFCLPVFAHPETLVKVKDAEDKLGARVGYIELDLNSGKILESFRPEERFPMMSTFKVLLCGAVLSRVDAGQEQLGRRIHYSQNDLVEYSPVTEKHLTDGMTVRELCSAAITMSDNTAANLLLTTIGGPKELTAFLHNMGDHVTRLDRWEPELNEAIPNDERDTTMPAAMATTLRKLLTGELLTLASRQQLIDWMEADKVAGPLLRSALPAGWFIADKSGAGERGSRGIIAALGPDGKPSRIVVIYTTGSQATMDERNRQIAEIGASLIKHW
Tyrosyl-DNA phosphodiesterase 2, sequence (O95551 whole entry): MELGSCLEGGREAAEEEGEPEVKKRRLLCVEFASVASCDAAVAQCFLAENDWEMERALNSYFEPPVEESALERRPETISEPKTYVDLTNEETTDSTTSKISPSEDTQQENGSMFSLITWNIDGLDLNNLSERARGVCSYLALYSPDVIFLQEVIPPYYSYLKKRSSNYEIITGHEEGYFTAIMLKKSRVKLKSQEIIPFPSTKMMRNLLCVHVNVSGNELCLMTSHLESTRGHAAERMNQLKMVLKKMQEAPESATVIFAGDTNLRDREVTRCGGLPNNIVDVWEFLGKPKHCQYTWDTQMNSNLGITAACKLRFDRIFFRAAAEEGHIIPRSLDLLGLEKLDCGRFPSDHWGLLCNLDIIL

With COc1ccc(S(=O)(=O)N(C)C[C@@H]2Oc3c(NC(=O)NC4CCCCC4)cccc3C(=O)N([C@@H](C)CO)C[C@H]2C)cc1 the AC50 [1] was 64.5 µM (active) and the AC50 [2] was 44.5 µM (active).
With CN1/C(=c2/s/c(=C3/C(=O)N(c4ccccc4)N=C3Nc3ccccc3)n(C)c2=O)C(C)(C)c2ccccc21 the IC50 [3] was 27 µM (not active) and the EC50 [4] was 39.9 µM (active).
For O=C(C1=NN(c2ccccc2)C2C(=O)N(c3ccc(Cl)cc3)C(=O)C12)c1ccccc1 (stereo unspecified), the IC50 [5] was 11.8 µM (inactive) and the IC50 [6] was > 49.7 µM (inactive).
With O=C(c1ccc([N+](=O)[O-])o1)N1CCN(c2nc3ccc(F)cc3s2)CC1 the EC50 [7] was 3.64 µM (active), the EC50 [8] was 0.384 µM (active) and the IC50 [9] was < 0.1 µM (active).
With C[n+]1cccc2c(Br)ccc([O-])c21 the IC50 [10] was 4.18 µM (active), the AC50 [11] was 7.45 µM (active) and the IC50 [12] was > 42.8 µM (inactive). The IC50 [13] was 92 µM (active) and the IC50 [14] was 1.64 µM (active).
With O=C(Nc1ncccc1O)c1ccc2c(c1)OCCO2 the EC50 [15] was 0.185 µM (active), the IC50 [16] was > 67.5 µM (inactive) and the EC50 [17] was 7.24 µM (active). The IC50 [18] was 1.59 µM (active), the EC50 [19] was 0.329 µM (active) and the AC50 [20] was 12 µM (active). The EC50 [21] was > 12 µM (not active), the EC50 [22] was 0.155 µM (active) and the EC50 [23] was 0.139 µM (active).
In the case of Cc1cc(C(=O)CSc2nnc3scc(-c4ccccc4)n23)c(C)n1-c1cc(F)ccc1F, the IC50 [24] was > 99 µM (inactive) and the IC50 [25] was > 99 µM (inactive).
For Cc1ccc(-n2c(C)cc(C(=O)Cn3nc(C(=O)O)c4ccccc4c3=O)c2C)cc1, the AC50 [26] was 5.3 µM (active).

— ChEMBL document CHEMBL1201862, “PubChem BioAssay data set” (2004)
